Values after ≈ are worked out from the molar mass of the structure shown. Where two headings read alike, the source gives them in different places.
How the values were obtained:
[1] = test system: KB V1 cells (multiple drug resistant); assay: Chemosensitization (cytotoxicity) assay of multiple drug resistant cells, MTT; type: cell-based; details: Homo sapiens, KB-V1, 72 h
Description: (§1) Cytotoxicity assays to determine 50% inhibition of growth (IC50) were done in 96-well tissue culture microtiter trays (Costar, Cambridge, Mass.). Cell growth was determined as follows: KB 3-1 (sensitive) and KB V1 (multiple drug resistant) cells grown in Dulbecco's modified Eagle medium (Gibco BRL, Division of Life Technologies, Inc., Grand Island, N.Y.) were added to each microtiter well at 1×10^4 cells in 200 μL of growth medium in the presence and absence of verapamil, 5-acetylardeemin and 5-acetyl-15b-β-hydroxyardeemin at […]. Anticancer cytotoxic agents adriamycin (ADR), vinblastine (VBL) and vincristine (VCR) (Sigma, St. Louis, Mo.) were added in final concentrations ranging from 0.0001 to 10 μg/mL. Cells were incubated at 37° C. in a humidified atmosphere of 4% CO2 for 72 hours. Cell growth was measured by the reduction of 3-(4,5-dimethyl-thiazol-2-yl)-2,5-diphenyltetrazolium bromide (MTT), added to each well at 0.1 mg/mL. The plates were incubated at 37° C. in humidified 4% CO2 for 3 hours. The trays were spun at 1000×g for 10 minutes, the supernatant removed by aspiration and the residual formazan reduction product dissolved in 100 μL of DMSO. Growth was quantitated by measuring the optical absorbance in each well at 570 nm in a microtiter plate reader.

[2] = test system: KB 3-1 cells (sensitive); assay: Cytotoxicity assay in drug-sensitive cells, MTT; type: cell-based; details: Homo sapiens, modulator: none, 72 hours
Description: as §1

[3] = test system: certain mammalian target cells; details: known compounds; cited from earlier work

## COc1cccc2c1C(=O)c1c(O)c3c(c(O)c1C2=O)C[C@@](O)(C(=O)CO)C[C@@H]3O[C@H]1C[C@H](N)[C@H](O)[C@H](C)O1 [ADR, adriamycin]
[1]; read-out: ADR-IC50
  IC50: 3 µg/mL
[2]; read-out: ADR-IC50
  IC50: 0.012 µg/mL (≈ 22.1 nM)

## CC[C@]1(O)C[C@@H]2CN(CCc3c([nH]c4ccccc34)[C@@](C(=O)OC)(c3cc4c(cc3OC)N(C)[C@H]3[C@@](O)(C(=O)OC)[C@H](OC(C)=O)[C@]5(CC)C=CCN6CC[C@]43[C@@H]65)C2)C1 [VBL, vinblastine]
[1]; read-out: VBL-IC50
  IC50: 1.2 µg/mL
[2]; read-out: VBL-IC50
  IC50: 0.001 µg/mL (≈ 1.23 nM)

## CC[C@]1(O)C[C@H]2CN(CCc3c([nH]c4ccccc34)[C@@](C(=O)OC)(c3cc4c(cc3OC)N(C=O)[C@H]3[C@@](O)(C(=O)OC)[C@H](OC(C)=O)[C@]5(CC)C=CCN6CC[C@]43[C@@H]65)C2)C1 [VCR, vincristine]
[1]; read-out: VCR-IC50
  IC50: 7 µg/mL
[2]; read-out: VCR-IC50
  IC50: 0.001 µg/mL (≈ 1.21 nM)

## COc1ccc(CCN(C)CCCC(C#N)(c2ccc(OC)c(OC)c2)C(C)C)cc1OC (stereo not drawn) [Verapamil, verapamil]
[3]
  attenuation of drug resistance: attenuate, if not reverse, drug resistance in certain mammalian target cells

## CCC1=C[C@@H]2CN3CCc4c([nH]c5ccccc45)[C@@](C(=O)OC)(C2)[C@@H]13 [catharanthine]
[3]
  attenuation of drug resistance: attenuate, if not reverse, drug resistance in certain mammalian target cells

## COc1ccc([C@@H]2Sc3ccccc3N(CCN(C)C)C(=O)[C@@H]2OC(C)=O)cc1 [diltiazem]
[3]
  attenuation of drug resistance: attenuate, if not reverse, drug resistance in certain mammalian target cells
